Measured values from patent US20110224151A1, “Polymeric Micelle Composition for Treatment of Resistant Cancer and Preparation Method of the Same” (SAMYANG CORPORATION, priority 2008, published 2011).
Converted amounts (≈) assume the structure as drawn.

Test system: DLD-1 colon cancer cells
Experiment: Inhibition of P-glycoprotein: paclitaxel cytotoxicity with and without cyclosporin
Assay type: cell-based, human
Conditions: for IC50: Homo sapiens

## CC(=O)O[C@H]1C(=O)[C@@]2(C)[C@H]([C@H](OC(=O)c3ccccc3)[C@]3(O)C[C@H](OC(=O)[C@H](O)[C@@H](NC(=O)c4ccccc4)c4ccccc4)C(C)=C1C3(C)C)[C@]1(OC(C)=O)CO[C@@H]1C[C@@H]2O [paclitaxel]
1.88 μg/mL cyclosporin, DLD-1 cells
  decrease of IC50 with cyclosporin as compared to paclitaxel alone: 15 times
DLD-1, DLD-1 cells treated with 1.88 μg/mL cyclosporin
  IC50: 0.011 µg/mL
DLD-1, paclitaxel administered alone, DLD-1 cells
  IC50: 0.16 µg/mL (≈ 0.187 µM)
